Patent US6989270B1, “Using polyamide nucleic acid oligomers to engender a biological response” (Mayo Foundation for Medical Education and Research, priority 1997, dated 2006)
Read-outs that look alike come from different tables or passages of the source.

Legend:
Format in all cases: in vivo, rat
[1] = test system: neurotensin receptor-1 (NTR1); assay: NT-induced hypothermia (rectal body temperature) in PNA-treated rats
Procedure: NTR1-PNA, MU1R-PNA, and ACSF treated as well as untreated rats were analyzed using the hot plate test for NT. One day after the last treatment, each rat was analyzed as follows. Fifteen minutes prior to testing, a pre-drug latency measurement was made by placing the rat on a hot plate maintained at a temperature of 52±0.15° C. and recording the time elapsed before the rat licked either of its hindpaws. In addition, the temperature of the rat was taken using a thermister probe inserted 3 cm in the rectum to determine the pre-drug body temperature (BT). After making these measurement, an appropriate dose of NT (18 nmol) at a volume of about 0.5 ul was administered into the PAG as described above. Thirty minutes after administering NT, the rat was again placed on a hot plate maintained at a temperature of 52±0.15° C. and the latency between the time the rat was placed on the surface and the time it licked either of its hindpaws was measured. […] Hot plate tests were scored as the percent of maximum possible effect (% MPE) and calculated using the following equation: % MPE=[(post-drug latency−pre-drug latency)/(cut-off−pre-drug latency)]×100; where the cut-off is 30 seconds. […] This average for untreated control rats was used to set the baseline MPE value to 100. Immediately after the 30 second hot plate test, BT was taken to measure NT-induced hypothermia using a thermister probe inserted 3 cm in the rectum. […] All test situations were compared to these baseline values derived from NT responsive untreated controls.
AS-NTR1-PNA, mismatch-AS-NTR1-PNA, and MU1R-PNA were injected intraperitoneally (10 mg/kg) independently, into separate groups of male Sprague-Dawley rats (Harlan, Prattville, Ala.). The sense-NTR1-PNA oligomer, however, was microinjected directly into the periaqueductal gray (PAG; 5 μg), the major area in the brain involved with perception of pain (nociception). […] Thirty minutes after receiving NT, animals were scored for anti-nociception (hot plate at 52° C.) and hypothermia (rectal probe). Again, anti-nociception scores were calculated as percent of maximum possible effect (% MPE) with the following equation: % MPE=[(post-drug latency time minus pre-drug latency time)/(cut-off time minus pre-drug latency time)]×100; where the cut-off time (i.e., the time when the animal was removed from the device) was 30 seconds for a hot plate test and 12 seconds for a tail flick test. Statistical analysis was done using the rank sum test.

[2] = test system: [125I]neurotensin binding sites (NT receptors); assay: [125I]neurotensin binding assay, PAG and hypothalamus homogenates of treated rats; details: for number of receptors (mean ± SEM in fmol/mg wet wt.) / percent of control / Kd: 24 hours after single oral 10 mg/kg; for Kd: [125I]neurotensin, read-out: KD (mean ± SEM in nM)
[3] = test system: [125I]neurotensin binding sites (NT receptors); assay: as above
Procedure: Binding assays were done with homogenates from rat PAG and hypothalamus tissue as described elsewhere (Kanba et al., J. Neurochem. 46:946-952 (1986) and Al-Rodhan N.R.F., Brain Res. 557:227-235 (1991)). Tissue concentrations were 1 mg wet weight per tube in a total volume of 100 μl with a final buffer concentration of 0.05 M Tris-HCl (pH 7.4) containing the following compounds to inhibit degradation of peptides: 0.02% (w/v) bovine serum albumin, 2.8 mg/ml bacitracin, 1.0 mM EDTA, 0.5 mM o-phenanthroline, 10 μg/ml pepstatin, 10 μg/ml leupeptin, 10 μg/ml aprotinin, 5 mM benzamidine, 2 mM phenylmethylsulfonylfluoride, and 50 μM bestatin. For each experiment, 80 μl of a thawed membranal suspension was incubated for 25 minutes at 20° C. in a solution containing 0.2 nM [^125I]neurotensin with a final volume of 100 μl. After incubation, the mixture was rapidly filtered to separate bound from unbound radioligand. Each filter was then dried for 2 minutes, placed on a solid scintillation sheet (Wallac Oy, Turku Finland; cat. no. 1205-441), and measured for radioactivity in a beta-plate scintillation counter (Wallac Oy; model # 1205 beta plate). Non-specific binding of [^125I]neurotensin, defined as the binding in the presence of 1 μM neurotensin (−20% of total binding), was subtracted from the total binding to calculate the specific binding.
The LIGAND program was used to analyze all binding data (Munson P. J. and Rodbard D., Analyt. Biochem. 107:220-239 (1980)). Specifically, this program was used to calculate equilibrium dissociation constants and maximal number of binding sites.
The analysis of PAG tissue in experiment 1 was as follows. Four rats were cannulated and treated on days -4, -2, and 0 with either ACSF only or NTR1-PNA as described above. One day after the final treatment, the PAG region of the rat brain was removed, homogenized, and used in the binding assays. Rats treated with ACSF only were used to derive control values for the percent control disintegrations per minute (dpm) and percent control receptors (fmol/mg wet weight). Thus, the values for ACSF only treated rats were set to 100 percent. One day after the final treatment, the PAG region from NTR1-PNA oligomer treated rats expressed 60-70 percent fewer [^125I]neurotensin binding sites than ACSF only treated rats.
In experiment 2, five rats were untreated and used as controls, two recovered rats were treated with ACSF only, and four rats were treated with NTR1-PNA oligomers. The two rats treated with ACSF only are designated as recovered since both rats previously received a single dose of PNA oligomers intraperitoneally (one received NTR1-PNA oligomers and the other MU1R-PNA oligomers). These rats, however, were not used until five days after the intraperitoneal (i.p.) PNA oligomer treatment. Thus, at the time the binding analysis was performed, these rats were completely normal as determined by the behavioral NT-mediated responses and the MOR-mediated response described above. Again, one day after the final treatment, the PAG region from NTR1-PNA oligomer treated rats expressed fewer [^125I]neurotensin binding sites than both the recovered ACSF only treated rats and untreated control rats. In this experiment, the reduction in binding sites was about 20-30 percent of those expressed by the untreated rats.
NT binding sites from the hypothalamus region of the rat brain were also analyzed. In this experiment, the hypothalamus region of rat brain was removed from the same rats used in experiment 2 to analyze the PAG region (five untreated control rats, two recovered ACSF only treated rats, and four NTR1-PNA oligomer treated rats). The untreated rats were used to derive control values. One day after the final treatment, the hypothalamus region from NTR1-PNA oligomer treated rats expressed 40-50 percent fewer [^125I]neurotensin binding sites than untreated control rats. […]

[4] = Hypothalamus tissue, untreated control, PNA injected into PAG
[5] = PAG tissue, Experiment 1, control ACSF only, PAG injections days -4, -2, 0
[6] = PAG tissue, Experiment 2, untreated control

NTR1-PNA: 12-mer antisense PNA oligomer to rat NTR1 coding region, 5′-CATTGCTCAAAC-3′ (SEQ ID NO: 1) (all peptide nucleic acid (PNA))
body temperature change in response to NT ([1]; 10 mg/kg intraperitoneally, NT 18 nmol 24 hours later): −0.5 °C
time until which NT-mediated hypothermia remained significantly reduced ([1]; PNA injected into PAG on days -4, -2, 0): day six
ED50 for reducing NT hypothermia ([1]; intraperitoneal dose-response, one batch of PNA): 3.2 mg/kg
% Control dpm's [2, 4]: 55 % Control
number of receptors (mean ± SEM in fmol/mg wet wt.) ([2]; Hypothalamus): 240 ± 30 fmol/mg wet wt.
percent of control ([2]; Hypothalamus): 51%
NT binding sites reduced ([2]; PAG and hypothalamus, 24 hours after oral 10 mg/kg): 50%
number of receptors (mean ± SEM in fmol/mg wet wt.) ([2]; PAG): 140 ± 20 fmol/mg wet wt.
percent of control ([2]; PAG): 48%
Kd ([2]; PAG of treated rats): 8.2 ± 0.7 nM
Kd ([2]; hypothalamus of treated rats): 7 ± 0.8 nM
% Control receptors [3, 4]: 51 % Control
% Control dpm's [3, 5]: 41 % Control
% Control receptors [3, 5]: 32 % Control
% Control dpm's [3, 6]: 81 % Control
% Control receptors [3, 6]: 67 % Control
fewer [125I]neurotensin binding sites than ACSF only treated rats ([3]; PAG, experiment 1, one day after final treatment): 60-70%
reduction in [125I]neurotensin binding sites vs untreated rats ([3]; PAG, experiment 2, one day after final treatment): 20-30%
effect of excess PNA added to brain homogenates on the binding assay ([3]; excess PNA added in vitro to brain homogenates): did not change these results
fewer [125I]neurotensin binding sites than untreated control rats ([3]; hypothalamus, one day after final treatment): 40-50%
